What was measured:
[1] = molecular target: Fasciola hepatica calcium-binding protein 4 (FhCaBP4), full-length (residues 1–191) (Fasciola hepatica); assay: crystal structure; apo form at 1.93 Å, space group P212121, two molecules per asymmetric unit; crystals grown at 20 °C by vapor diffusion with 2 M ammonium sulfate, 0.1 M sodium citrate/citric acid pH 5.5
[2] = molecular target: T1, FhCaBP4 (Fasciola hepatica calcium-binding protein 4) (Fasciola hepatica, UniProt I6U578); assay: microscale thermophoresis (MST), labelled purified protein
T1 construct: full-length (residues 1–191), C-terminal 6×His-tag (LEHHHHHH)

Row | Compound | stoichiometry N [1] | Kd [2]
1 | Fasciola hepatica calcium-binding protein 4 (FhCaBP4), full-length (residues 1–191) (natural protein) | 2 | 
2 | CN(C)CCCN1c2ccccc2Sc2ccc(Cl)cc21 [CPZ] |  | 289 ± 99.6 µM
3 | NCCCCCCNS(=O)(=O)c1cccc2c(Cl)cccc12 [W7] |  | 471 ± 157 µM
4 | CN1CCN(CCCN2c3ccccc3Sc3ccc(C(F)(F)F)cc32)CC1 [TFP] |  | 699 ± 341 µM
